Consider 22 compounds from patent US8575153B2 (Kowa Company, Ltd., priority 2008, dated 2013).

In series [1] the target is Recombinant human JAK3 enzyme (JAK3 kinase region; Ala795-Ser1124) (Homo sapiens, UniProt P52333). Nature of the series: JAK3 Kinase Assay (Kinase-Glo luminescent, ATP consumption). Conditions: read-out: Inhibition rate (%) of JAK3 kinase activity. Background: Kinase-Glo reads ATP consumption through a luciferase reaction.

Counter-ions that a name gives are not always drawn.

Chain of Recombinant human JAK3 enzyme (JAK3 kinase region; Ala795-Ser1124) (P52333 795-1124): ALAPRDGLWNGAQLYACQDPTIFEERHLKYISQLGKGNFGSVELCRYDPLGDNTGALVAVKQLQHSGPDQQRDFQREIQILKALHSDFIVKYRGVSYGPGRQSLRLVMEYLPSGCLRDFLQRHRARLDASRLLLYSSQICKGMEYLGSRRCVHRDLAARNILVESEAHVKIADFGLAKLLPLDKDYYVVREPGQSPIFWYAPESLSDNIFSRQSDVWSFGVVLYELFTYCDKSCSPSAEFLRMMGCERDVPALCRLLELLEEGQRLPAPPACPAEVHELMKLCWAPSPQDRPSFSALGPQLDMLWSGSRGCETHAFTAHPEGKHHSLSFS

As a reminder, the melting point is the temperature of the solid-liquid transition. What is called inhibition is the share of the control response that was lost under treatment. The compound `CCN(CC)CCN1CCN(c2ccc(Nc3cc(NCc4cccc([N+](=O)[O-])c4)c(C(N)=O)cn3)cc2)CC1` [Example 235, 6-[(4-{4-[2-(diethylamino)ethyl]piperazin-1-yl}phenyl)amino]-4-[(3-nitrobenzyl)amino]pyridine-3-carboxyamide] came in with a melting point of 165 to 166 °C. Moreover, the inhibition at 0.1 µM in series [1] worked out at 82%.
As for `Cc1cc(Nc2cc(NCc3cc(F)cc(F)c3)c(C(N)=O)cn2)ccc1N1CCOCC1` [Example 126, 4-[(3,5-difluorobenzyl)amino]-6-[(3-methyl-4-morpholinophenyl)amino]-pyridine-3-carboxyamide], the melting point was 223 to 224 °C (dec.). Moreover, in series [1], the inhibition at 0.1 µM was 60%.
As to `CS(=O)(=O)Nc1ccc(Nc2cc(NCc3cc(F)cc(F)c3)c(C(N)=O)cn2)cc1` [Example 159, 4-[(3,5-difluorobenzyl)amino]-6-({4-[(methylsulfonyl)amino]phenyl}amino)pyridine-3-carboxyamide], the melting point is 236 to 238 °C (dec.). In addition, the inhibition at 0.1 µM in series [1] was found to be 100%.
Consider `CC(C)C(=O)N1CCN(c2ccc(Nc3cc(NCc4ccccc4)c(C(N)=O)cn3)cc2)CC1` [Example 259, 4-(benzylamino)-6-({4-[4-(2-methylpropanoyl)piperazin-1-yl]phenyl}amino)pyridine-3-carboxyamide], for which the melting point was 218 to 220 °C (dec.). In series [1], the inhibition at 0.1 µM stood at 67%.
The matching figures for `N#CCCCN1CCN(c2ccc(Nc3cc(NCc4cccc([N+](=O)[O-])c4)c(C(N)=O)cn3)cc2)CC1` [Example 242, 6-({4-[4-(3-cyanopropyl)piperazin-1-yl]phenyl}amino)-4-[(3-nitrobenzyl)amino]pyridine-3-carboxyamide]: 190 to 191 °C (dec.) and 77%.
For `NC(=O)c1cnc(Nc2ccc(N3CCCNCC3)cc2)cc1NCc1ccccc1` [Example 226, 4-(benzylamino)-6-{[4-(1,4-diazepan-1-yl)phenyl]amino}pyridine-3-carboxyamide] the same measures were 165 to 167 °C and 61%.
With `CS(=O)(=O)NCCN1CCN(c2ccc(Nc3cc(NCc4cc(F)cc(F)c4)c(C(N)=O)cn3)cc2)CC1` [Example 249, 4-[(3,5-difluorobenzyl)amino]-6-{[4-(4-{2-[(methylsulfonyl)amino]ethyl}piperazin-1-yl]phenyl]amino}pyridine-3-carboxyamide], the melting point is 216 to 219 °C (dec.). The inhibition at 0.1 µM in series [1] is 81%.
Take `NCCN1CCN(c2ccc(Nc3cc(NCc4cc(F)cc(F)c4)c(CC(N)=O)cn3)cc2)CC1` [Example 248, 6-({4-{4-(2-aminoethyl)piperazin-1-yl]phenyl}amino]-4-[(3,5-difluorobenzyl)amino]pyridine-3-carboxyamide]: the melting point is 190 to 194 °C (dec.).
Consider `NC(=O)c1cnc(Nc2ccc(N3CCC(=O)CC3)cc2)cc1NCc1cc(F)cc(F)c1` [Example 192, 4-[(3,5-difluorobenzyl)amino]-6-{[4-(4-oxopiperidino)phenyl]amino}pyridine-3-carboxyamide], for which the melting point is 223 to 226 °C (dec.). Also, in series [1], the inhibition at 0.1 µM was 89%.
As for `COc1cc(Nc2cc(NCc3cc(F)cc(F)c3)c(C(N)=O)cn2)ccc1N1CCOCC1` [Example 128, 4-[(3,5-difluorobenzyl)amino]-6-[(3-methoxy-4-morpholinophenyl)amino]pyridine-3-carboxyamide], the melting point is 229.6 to 230 °C (dec.). Also, the inhibition at 0.1 µM in series [1] was 92%.
For `NCCCc1ccc(Nc2cc(NCc3cc(F)cc(F)c3)c(C(N)=O)cn2)cc1` [Example 201, 6-{[4-(3-aminopropyl)phenyl]amino}-4-[(3,5-difluorobenzyl)amino]pyridine-3-carboxyamide] the same measures were 180 to 181 °C and 60%.
`COC1CCN(c2ccc(Nc3cc(NCc4cc(F)cc(F)c4)c(C(N)=O)cn3)cc2)CC1` [Example 190, 4-[(3,5-difluorobenzyl)amino]-6-{[4-(4-methoxypiperidino)phenyl]amino}pyridine-3-carboxyamide]: the melting point was 202.9 to 203.3 °C (dec.). The inhibition at 0.1 µM in series [1] was found to be 89%.
As for `N#Cc1ccc2ncn(-c3cc(NCc4cc(F)cc(F)c4)c(C(N)=O)cn3)c2c1` [Example 366, 6-(6-cyano-1H-benzimidazol-1-yl)-4-[(3,5-difluorobenzyl)amino]pyridine-3-carboxyamide], the inhibition at 1 µM in series [1] amounted to 9%.
As to `CC(C)S(=O)(=O)Nc1cccc(Nc2cc(NCc3cc(F)cc(F)c3)c(C(N)=O)cn2)c1` [Example 165, 4-[(3,5-difluorobenzyl)amino]-6-({3-[(propan-2-ylsulfonyl)amino]phenyl}amino)pyridine-3-carboxyamide], the inhibition at 0.1 µM in series [1] worked out at 54%.
Still for that read-out and setting: the value for `NC(=O)c1cnc(Nc2ccc(NC(=O)[C@@H]3CCCN3)cc2)cc1NCc1cc(F)cc(F)c1` [Example 317, 4-[(3,5-difluorobenzyl)amino]-6-{[4-(L-prolylamino)phenyl]amino}pyridine-3-carboxyamide hydrochloride] was 62%; that for `N#CCCC1CCN(c2ccc(Nc3cc(NCc4ccccc4)c(C(N)=O)cn3)cc2)CC1` [Example 60, 4-(benzylamino)-6-({4-[4-(2-cyanoethyl)piperidino]phenyl}amino)pyridine-3-carboxyamide] was 65%; that for `NC(=O)c1cnc(Nc2ccc(N3CCC(CCO)CC3)cc2)cc1NCc1cccc(F)c1F` [Example 178, 4-[(2,3-difluorobenzyl)amino]-6-({4-{4-(2-hydroxyethyl)piperidino]phenyl}amino)pyridine-3-carboxyamide] was 90%.
For the compound `NC(=O)c1cnc(Nc2ccc(N3CCC(O)CC3)cc2)cc1NCc1cc(F)ccc1F` [Example 188, 4-[(2,5-difluorobenzyl)amino]-6-[(4-(4-hydroxypiperidino)phenyl]amino}pyridine-3-carboxyamide], in series [1], the inhibition at 0.1 µM is 89%.
Same read-out and setting: the value for `COCCNc1ccc(Nc2cc(NCc3cc(F)cc(F)c3)c(C(N)=O)cn2)cc1` [Example 233, 4-[(3,5-difluorobenzyl)amino]-6-({4-[(2-methoxyethyl)amino]phenyl}amino)pyridine-3-carboxyamide] was 74%.
Take `CC(C)S(=O)(=O)N1CCC(c2ccc(Nc3cc(NCc4cc(F)cc(F)c4)c(C(N)=O)cn3)cc2)CC1` [Example 296, 4-[(3,5-difluorobenzyl)amino]-6-({4-[1-(propan-2-ylsulfonyl)piperidin-4-yl]phenyl}amino) pyridine-3-carboxyamide]: the melting point was 142 to 144 °C (dec.).
Consider `NC(=O)c1cnc(Nc2ccc(N3CCNCC3)cc2)cc1NCc1cc(F)cc(F)c1` [Example 221, 4-[(3,5-difluorobenzyl)amino]-6-{[4-(piperazin-1-yl)phenyl]amino}pyridine-3-carboxyamide], for which, in series [1], the inhibition at 0.1 µM was 78%.
For the compound `CCN(CC)CCN1CCN(c2ccc(Nc3cc(NCc4cc(F)cc(F)c4)c(C(N)=O)cn3)cc2)CC1` [Example 238, 6-[(4-{4-[2-(diethylamino)ethyl]piperazin-1-yl}phenyl)amino]-4-[(3,5-difluorobenzyl)amino]pyridine-3-carboxyamide], in series [1], the inhibition at 0.1 µM stood at 100%.
